Compound: O=C(O)c1ccc(CCc2ccc(NC(=O)c3c(NC(=O)c4cccc(S(=O)(=O)N(C5CC5)[C@H]5CC[C@@H](C(=O)O)CC5)c4)sc4c3CCCC4)cc2)cc1 [Example 5, 4-{2-[4-({[2-({3-[(cis-4-carboxycyclohexyl)(cyclopropyl)sulfamoyl]benzoyl}amino)-4,5,6,7-tetrahydro-1-benzothiophen-3-yl]carbonyl}amino)phenyl]ethyl}benzoic acid]
- melting point: 186.8 °C

Source: US8729068B2, “Tetrahydrobenzothiophene compound” (Astellas Pharma Inc., priority 2010, dated 2014)
